Test results reported in patent publication US6346543B1, “Use of a taxoid to treat abnormal cell proliferation in the brain” (priority 1998, dated 2002).
“And” between values parts separate entries of the source, which are not always exact repeats. Equal values may be shown once.

System: intracranially implanted human glioblastoma SF-295
Assay: Antitumor activity against intracranially implanted SF-295 glioblastoma in NCr-nu mice (RP-38)
Assay type: in vivo
Conditions: for DAYS OF DEATH: individual animals
Text: Four studies were initiated to evaluate the response of U251 and SF-295 glioblastomas to treatment with product (Ia). In the two studies, U251 and SF-295 glioblastomas were initiated from intracranially implanted cells at a volume of 10^6 cells per mouse. The treatment schedule of the intracranially implanted U251 glioblastoma cells was iv, once daily, every sixth day for three treatments (q6d×3), beginning on day four post-implant. The treatment schedule of the intracranially implanted SF-295 glioblastoma cells was iv, once daily, every fourth day for three treatments (q4d×3), beginning on day two post-implant. For the intracranially implanted studies, the compounds were evaluated based on their ability to increase the life span of the animals. The positive control used for both of these tumor models was nitrosourea.
In these experiments, general DCTD, NCI techniques and procedures for in vivo efficacy studies were modified for special application (In Vivo Cancer Models, NIH Publication No. 84-2635, 1984). These studies were conducted in approved facilities (AAALAC Registration No. 000643, AALAS Membership No. 840723001, USDA Registration No. 64-R-001, OPPR, PHS, NIH, AWA, Assurance No. A3046-01). These facilities are ISO 9001 certified. The oversight committee was the Southern Research Institutional Animal Care and Use Committee; the protocol used was IACUC No. 96-8-50.
Product (Ia) was prepared in 5% ethanol, 5% tween 80, 90% D5W
Nitrosourea was prepared in 2% ethanol, 98% physiological saline.
Product (Ia) was administered in 0.4 ml/mouse based on a total body weight average.
Nitrosourea was administered 0.1 ml/10 g of body weight.
Any intracranially implanted animal that appeared to be moribund was euthanized for humane purposes. Since efficacy studies fall within this category of basic research, experiment termination was based on resultants that were determined to be optimal.
Six to eight week old athymic NCr-nu female mice were used for the intracranially implanted U251 trials. Six to eight week old athymic NCr-nu male mice were used for the intracranially implanted SF-295 trials.
As previously mentioned, this experiment was designed to evaluate the activity of product (Ia) against intracranially U251 and SF-295 glioblastomas in athymic MCr-nu mice. The dosages for product (Ia) were 30, 20 and 13.4 mg/kg/dose. For the two intracranially implanted experiments, cells were prepared at a concentration of 3.33×10^7 cells per ml of media and injected at a volume of 0.03 ml per mouse. The cells were injected into the cerebrum to the right of the midline with a 25 gauge, ⅜ inch, stainless steel needle. Cultured cells were used for the U251 experiment (RP-36). The treatment schedule was q6d×3, iv, beginning on day four, post-implant. A tumor brei, made from solid tumor, was used for the SF-295 experiment (RP-38). The treatment schedule was q4d×3, iv, beginning on day two, post-implant. Nitrosourea was given in each experiment for comparative purposes because of its known activity against CNS tumors. The dosages were 27, 18 and 12 mg/kg/dose and the treatment schedule was the same as the treatment schedule for product (Ia) in each experiment.

[1] = 13.4 mg/kg/dose IV Q4D×3(2), listed as product (Ia)

CO[C@H]1C(=O)[C@]2(C)[C@@H](OC)C[C@H]3OC[C@@]3(OC(C)=O)[C@H]2[C@H](OC(=O)c2ccccc2)[C@]2(O)C[C@H](OC(=O)[C@H](O)[C@@H](NC(=O)OC(C)(C)C)c3ccccc3)C(C)=C1C2(C)C [Product (Ia), 4α-acetoxy-2α-benzoyloxy-5β, 20-epoxy-1β-hydroxy-7β, 10β-dimethoxy-9-oxo-11-taxen-13α-yl (2R,3S)-3 tert-butoxycarbonylamino-2-hydroxy-3-phenylpropionate]
68 DAY SURV./TOTAL (13.4 mg/kg/dose IV Q4D×3(2)): 1/10
% ILS (13.4 mg/kg/dose IV Q4D×3(2)): +81%
MEDIAN DAY OF DEATH (13.4 mg/kg/dose IV Q4D×3(2)): 29.0 days
MEAN ANIMAL WEIGHT (13.4 mg/kg/dose IV Q4D×3(2), day 2): 25 GRAMS
MEAN ANIMAL WEIGHT (13.4 mg/kg/dose IV Q4D×3(2), day 5): 24 GRAMS
MEAN ANIMAL WEIGHT (13.4 mg/kg/dose IV Q4D×3(2), day 8): 23 GRAMS
MEAN ANIMAL WEIGHT (13.4 mg/kg/dose IV Q4D×3(2), day 13): 22 GRAMS
MEAN ANIMAL WEIGHT (13.4 mg/kg/dose IV Q4D×3(2), day 15): 20 GRAMS
MEAN ANIMAL WEIGHT (13.4 mg/kg/dose IV Q4D×3(2), day 19): 21 GRAMS
MEAN ANIMAL WEIGHT (13.4 mg/kg/dose IV Q4D×3(2), day 22): 22 GRAMS
MEAN ANIMAL WEIGHT (13.4 mg/kg/dose IV Q4D×3(2), day 26): 21 GRAMS
MEAN ANIMAL WEIGHT (13.4 mg/kg/dose IV Q4D×3(2), day 29): 22 GRAMS
MEAN ANIMAL WEIGHT (13.4 mg/kg/dose IV Q4D×3(2), day 33): 22 GRAMS
MEAN ANIMAL WEIGHT (13.4 mg/kg/dose IV Q4D×3(2), day 37): 26 GRAMS
MEAN ANIMAL WEIGHT (13.4 mg/kg/dose IV Q4D×3(2), day 40): 22 GRAMS
MEAN ANIMAL WEIGHT (13.4 mg/kg/dose IV Q4D×3(2), day 43): 27 GRAMS
DAYS OF DEATH (13.4 mg/kg/dose IV Q4D×3(2)): 34 day and 41 day and 25 day (2×) and 29 day (3×) and 30 day and 32 day
68 DAY SURV./TOTAL [1]: one 68-day survivor out of ten animals
% ILS [1]: 81%
mean weight loss through the treatment period (20 mg/kg dose iv q4d×3): 6 g
68 DAY SURV./TOTAL (20.0 mg/kg/dose IV Q4D×3(2)): 0/10
% ILS (20.0 mg/kg/dose IV Q4D×3(2)): +94%
MEDIAN DAY OF DEATH (20.0 mg/kg/dose IV Q4D×3(2)): 31.0 days
MEAN ANIMAL WEIGHT (20.0 mg/kg/dose IV Q4D×3(2), day 2): 25 GRAMS
MEAN ANIMAL WEIGHT (20.0 mg/kg/dose IV Q4D×3(2), day 5): 24 GRAMS
MEAN ANIMAL WEIGHT (20.0 mg/kg/dose IV Q4D×3(2), day 8): 21 GRAMS
MEAN ANIMAL WEIGHT (20.0 mg/kg/dose IV Q4D×3(2), day 13): 19 GRAMS
MEAN ANIMAL WEIGHT (20.0 mg/kg/dose IV Q4D×3(2), day 15): 18 GRAMS
MEAN ANIMAL WEIGHT (20.0 mg/kg/dose IV Q4D×3(2), day 19): 19 GRAMS
MEAN ANIMAL WEIGHT (20.0 mg/kg/dose IV Q4D×3(2), day 22): 21 GRAMS
MEAN ANIMAL WEIGHT (20.0 mg/kg/dose IV Q4D×3(2), day 26): 22 GRAMS
MEAN ANIMAL WEIGHT (20.0 mg/kg/dose IV Q4D×3(2), day 29): 19 GRAMS
MEAN ANIMAL WEIGHT (20.0 mg/kg/dose IV Q4D×3(2), day 33): 23 GRAMS
MEAN ANIMAL WEIGHT (20.0 mg/kg/dose IV Q4D×3(2), day 37): 29 GRAMS
MEAN ANIMAL WEIGHT (20.0 mg/kg/dose IV Q4D×3(2), day 40): 29 GRAMS
MEAN ANIMAL WEIGHT (20.0 mg/kg/dose IV Q4D×3(2), day 43): 29 GRAMS
DAYS OF DEATH (20.0 mg/kg/dose IV Q4D×3(2)): 33 day (2×) and 37 day and 54 day and 13 day (2×) and 16 day and 31 day (3×)
% ILS (20.0 mg/kg/dose IV Q4D×3(2), listed as product (Ia)): 94%
mean weight loss through the treatment period (30 mg/kg dose iv q4d×3): 7 g
68 DAY SURV./TOTAL (30.0 mg/kg/dose IV Q4D×3(2)): 0/10
% ILS (30.0 mg/kg/dose IV Q4D×3(2)): −9%
MEDIAN DAY OF DEATH (30.0 mg/kg/dose IV Q4D×3(2)): 14.5 days
MEAN ANIMAL WEIGHT (30.0 mg/kg/dose IV Q4D×3(2), day 2): 25 GRAMS
MEAN ANIMAL WEIGHT (30.0 mg/kg/dose IV Q4D×3(2), day 5): 23 GRAMS
MEAN ANIMAL WEIGHT (30.0 mg/kg/dose IV Q4D×3(2), day 8): 18 GRAMS
MEAN ANIMAL WEIGHT (30.0 mg/kg/dose IV Q4D×3(2), day 13): 18 GRAMS
MEAN ANIMAL WEIGHT (30.0 mg/kg/dose IV Q4D×3(2), day 15): 19 GRAMS
MEAN ANIMAL WEIGHT (30.0 mg/kg/dose IV Q4D×3(2), day 19): 19 GRAMS
MEAN ANIMAL WEIGHT (30.0 mg/kg/dose IV Q4D×3(2), day 22): 21 GRAMS
MEAN ANIMAL WEIGHT (30.0 mg/kg/dose IV Q4D×3(2), day 26): 21 GRAMS
MEAN ANIMAL WEIGHT (30.0 mg/kg/dose IV Q4D×3(2), day 29): 19 GRAMS
MEAN ANIMAL WEIGHT (30.0 mg/kg/dose IV Q4D×3(2), day 33): 20 GRAMS
MEAN ANIMAL WEIGHT (30.0 mg/kg/dose IV Q4D×3(2), day 37): 18 GRAMS
MEAN ANIMAL WEIGHT (30.0 mg/kg/dose IV Q4D×3(2), day 40): 21 GRAMS
MEAN ANIMAL WEIGHT (30.0 mg/kg/dose IV Q4D×3(2), day 43): 17 GRAMS
DAYS OF DEATH (30.0 mg/kg/dose IV Q4D×3(2)): 40 day and 41 day and 47 day and 11 day and 13 day (2×) and 14 day (2×) and 15 day and 30 day
activity against intracranially implanted SF-295 glioblastoma (iv q4d×3): quite active
MTD (iv q4d×3, SF-295 experiment RP-38): 13.4 mg/kg/dose
